The source made the active and inactive calls. No cut-off for these calls is given here.
Assays:
[1] = system: Human immunodeficiency virus 1; experiment: Antiviral activity against HIV1 RF in CEM-SS cells assessed as cell protection against virus infection up to 260 uM by XTT assay; format: functional, organism-based
[2] = Inhibition of HIV1 REV protein binding to HIV1 [P33]RRE RNA by liquid scintillation assay; design: species or system Human immunodeficiency virus 1
[3] = Ratio of IC50 for R17 activity to IC50 for HIV1 Rev activity
[4] = Inhibition of R17 coat protein binding to [33P]labeled R17 operator RNA

CC(=O)OC[C@H]1O[C@H](O[C@]2(COC(C)=O)O[C@H](COC(=O)/C=C/c3ccccc3)[C@@H](O)[C@@H]2OC(=O)/C=C/c2ccccc2)[C@H](OC(C)=O)[C@@H](O)[C@@H]1OC(C)=O [NIRURIDE]
Activity [1]: inactive
IC50 [2]: 3.3 µM
Ratio IC50 [3]: > 40
IC50 [4]: > 130 µM
